Values joined by “and” are separate entries in the source; they are usually repeats but may differ in a detail not shown here. Identical values can stand only once. Counter-ions that a name gives are not always drawn. Marks after values point to notes of the source that are not given here.
How the values were obtained:
[1] = in vivo; details: male, SD, rat, plasma, po, 50 mg/kg; for AUC(0-inf): AUC0-inf of gefitinib; for AUC(0-t): AUC0-t of gefitinib; for Cmax: Cmax of gefitinib; for MRT inf: MRTinf of gefitinib; for half-life: t1/2 of gefitinib
[2] = tested on: NCI-H520 cell xenograft; assay: NCI-H520 xenograft nude mice, 35 days oral: gefitinib 120 mg/kg single, bojungikgi-tang 400 mg/kg single, or co-administered within 5 minutes; type: in vivo, Balb/c Slc nu/nu mice; details: co-adm BJIKT 100/200/400 mg/kg in order
Experimental: A total of 73 nude mice were purchased, and NCI-H520 cells were xenografted into a subcutaneous region of a right hip each of 67 mice. 14 days after the grafting, the xenografted mice having a tumor volume of 100 mm^3 or more were selected, and divided into seven groups of 6 mice each to be used in the experiment as listed in Table 16. Separately, 6 mice were prepared as the vehicle control.
Then, the NCI-H520 cells were cultured to a density of 1.0×10^8 cells/ml to prepare a tumor cell suspension, and 0.2 mL (2×10^7 cells/head) of the NCI-H520 tumor cell suspension was injected into subcutaneous regions of right back buttocks of the mice to form a solid tumor mass.

[3] = in vivo; details: male, SD, rat, plasma, po, 50 mg/kg
[4] = mouse, in vivo
[5] = sorafenib 100 mg/kg single
[6] = tested on: HepG2 cells; assay: HepG2 cell viability, MTT method (BJIKT, sorafenib); type: cell-based; details: Homo sapiens
[7] = tested on: HepG2 cells; assay: HepG2 cell viability, MTT method (YMJHT, sorafenib); type: cell-based; details: Homo sapiens
[8] = tested on: MCF-7 cell xenograft; assay: MCF-7 xenograft nude mice, 35 days oral: tamoxifen 20 mg/kg single, JEKHT 500 mg/kg single, or co-administered within 5 minutes; tumor, immune and cachexia readouts; type: in vivo, Balb/c Slc nu/nu mice
Text: In Example 3, as laboratory animals, Balb/c Slc nu/nu mice (5-week-old females, SLC, Shizuoka, Japan) were used. Seventy three nude mice were purchased, and sixty seven xenografted mice having a tumor volume of 50 mm^3 or more 14 days after MCF-7 cells were xenografted into subcutaneous parts of a right hip of each mouse were selected, and divided into groups of seven mice each.
The xenografted MCF-7 cells were maintained by sub-culturing the MCF-7 cells (American Type Culture Collection Center, VA, USA) using 10% fetal bovine serum (FBS)-added RPMI 1640 (Gibco, Grand Island, N.Y., USA) media in a 5% C02 incubator at 37° C., and a solid tumor mass was formed by preparing a tumor cell suspension to have a cell concentration of 1.0×10^8 cell/ml, and grafting 0.2 ml (2×10^7 cell/mouse) of the MCF-7 tumor cell suspension on a subcutaneous part of a right hip of each mouse.

[9] = in vivo; details: male, SD, rat, plasma; for Cmax / MRT inf / Tmax / half-life: oral; for Cmax: Blood Cmax of tamoxifen; for MRT inf: Blood MRTinf of tamoxifen; for Tmax: Blood Tmax of tamoxifen; for half-life: Blood t1/2 of tamoxifen; for AUC(0-inf) / AUC(0-t): po, 50 mg/kg; for AUC(0-inf): Blood tamoxifen AUC0-inf; for AUC(0-t): Blood tamoxifen AUC0-t
[10] = in vivo; details: male, SD, rat, plasma
[11] = co-adm JEKHT 125/250/500 mg/kg in order
[12] = co-adm JEKHT dose given in table
[13] = submandibular lymph node, JEKHT dose = table row
[14] = tumor mass, JEKHT dose = table row

For COc1cc2ncnc(Nc3ccc(F)c(Cl)c3)c2cc1OCCCN1CCOCC1 [Gefitinib], the AUC(0-inf) ([1]; 9th administration) was 16900 ± 4140 ng·h/mL, the AUC(0-inf) ([1]; first gefitinib administration) was 20200 ± 4610 ng·h/mL and the AUC(0-t) ([1]; 9th administration) was 13500 ± 2780 ng·h/mL. It also gave an AUC(0-t) ([1]; first gefitinib administration) of 15400 ± 2240 ng·h/mL, a Cmax ([1]; 9th administration) of 3120 ± 770 ng/mL and a Cmax ([1]; first gefitinib administration) of 3010 ± 480 ng/mL. It also gave an MRT inf ([1]; 9th administration) of 5.71 ± 1.04 h, an MRT inf ([1]; first gefitinib administration) of 5.94 ± 1.36 h and a half-life ([1]; 9th administration) of 2.38 ± 0.88 h. The half-life ([1]; first gefitinib administration) was 2.82 ± 0.92 h, the “Absolute periovarian fat pad weight, change vs TB control” value [2] was −3.06% and the “Absolute spleen weight, change vs TB control” value [2] was 14.01%. For the same compound, the “Absolute submandibular lymph node weight, change vs TB control” value [2] was 50.00%, the “Absolute tumor weight change” value [2] was −39.14% and the “Blood IFN-γ content, change vs TB control” value [2] was 6.77%. The “Blood IL-6 content, change vs TB control” value [2] was −12.33%, the “Body weight gain, change vs tumor-bearing control” value [2] was 68.23% and the “COX-2 immunoreactive cells in tumor tissue, change vs TB control” value [2] was −42.48%. The “Caspase-3 immunoreactive cells in tumor tissue, change vs TB control” value [2] was 168.67%, the “Diameter of splenic white pulp, change vs TB control” value [2] was 6.51% and the “Follicles in submandibular lymph node cortex, change vs TB control” value [2] was 15.00%. The “Mean white adipocyte diameter, change vs TB control” value [2] was −7.01%, the “Number of splenic white pulps, change vs TB control” value [2] was 22.22% and the “PARP immunoreactive cells in tumor tissue, change vs TB control” value [2] was 125.47%. The “Percentage of apoptotic cells in tumor tissue, change vs TB control” value [2] was 131.78%, the “Percentage of tumor cells in tumor tissue, change vs TB control” value [2] was −36.78% and the “Periovarian fat pad thickness, change vs TB control” value [2] was 2.11%. For the same compound, the “Spleen IL-1β content, change vs TB control” value [2] was 8.36%, the “Spleen IL-10 content, change vs TB control” value [2] was 5.16% and the “Spleen TNF-α content, change vs TB control” value [2] was 6.73%. The “Splenic NK cell activity, change vs TB control” value [2] was 4.93%, the “Submandibular lymph node cortex thickness, change vs TB control” value [2] was 16.19% and the “TNF-α immunoreactive cells in tumor tissue, change vs TB control” value [2] was 12.63%. For the same compound, the “Total spleen thickness, change vs TB control” value [2] was −6.99%, the “Total submandibular lymph node thickness, change vs TB control” value [2] was 7.42% and the “Tumor volume variation, change vs tumor-bearing control” value [2] was −55.42%. The “iNOS immunoreactive cells in tumor tissue, change vs TB control” value [2] was 9.02%, the AUC(0-inf) [3] was 16400 ± 9310 ng·h/mL and the AUC(0-t) [3] was 14600 ± 9450 ng·h/mL. For the same compound, the Cmax [3] was 2160 ± 760 ng/mL and the half-life [3] was 2.59 ± 0.76 h.

In the case of CNC(=O)c1cc(Oc2ccc(NC(=O)Nc3ccc(Cl)c(C(F)(F)F)c3)cc2)ccn1 [Sorafenib, sorafenib], the Any abnormal signs ([4]; male, ICR, 28 days) is reported as 0/7 (0%), the Normal appearance ([4]; male, ICR, 28 days) is reported as 7/7 (100%) and the “Adrenal G L absolute weight” value [4] is reported as 0.003 ± 0.002. The “BASO (%)” value [4] was 0.30 ± 0.20%, the “Body weight gain, Day 0~Day 14” value [4] was 6.63 ± 1.62 and the “Body weight gain, Day 14~Day 27” value [4] was 2.11 ± 1.51. For the same compound, the Brain absolute weight [4] was 0.471 ± 0.022, the “Epididymis L absolute weight” value [4] was 0.036 ± 0.004^a and the HCT [4] was 41.89 ± 2.13%. For the same compound, the HGB [4] was 18.54 ± 0.88 g/dL, the Heart absolute weight [4] was 0.155 ± 0.011 and the “Kidney L absolute weight” value [4] was 0.285 ± 0.042. For the same compound, the “LN L absolute weight” value [4] was 0.002 ± 0.001^a, the “LYM (%)” value [4] was 70.74 ± 6.08^c % and the Liver absolute weight [4] was 1.234 ± 0.149. The Lung absolute weight [4] was 0.172 ±0 .010, the MCH [4] was 20.89 ± 0.88 pg and the MCV [4] was 47.13 ± 2.47 fL. For the same compound, the “MONO (%)” value [4] was 5.26 ± 1.55%, the “NEU (%)” value [4] was 17.36 ± 5.16^c % and the PLT [4] was 804.86 ± 99.24 K/μL. The “Pancreas S absolute weight” value [4] was 0.156 ± 0.022, the RBC [4] was 8.89 ± 0.39 M/μL and the RET [4] was 0.51 ± 0.33 ea/1000. For the same compound, the Spleen absolute weight [4] was 0.063 ± 0.007^e, the “Testis L absolute weight” value [4] was 0.097 ± 0.006^a and the Thymus absolute weight [4] was 0.027 ± 0.004^a. The WBC [4] was 1.81 ± 0.53^a K/μL, the “Deaths, Days of treatment period (Day 0 to 27)” value [5] was 0 and the “Deaths, Termination date (28th day of administration)” value [5] was 0. For the same compound, the IC50 [6] was 2.8 µM and 1.3 µg/mL and the IC50 [7] was 2.81 µM and 1.31 µg/mL.

For CC/C(=C(\c1ccccc1)c1ccc(OCCN(C)C)cc1)c1ccccc1 [Tamoxifen, Tamoxifen citrate], the “Periovarian fat pad total thickness” value ([8]; JEKHT dose = table row) was 0.28 ± 0.10^a mm/central regions, the Spleen total thickness ([8]; JEKHT dose = table row) was 1.15 ± 0.13^a mm/central regions and the “Spleen white pulp diameters” value ([8]; JEKHT dose = table row) was 298.11 ± 61.88^a μm/white pulp. The “Spleen white pulp numbers” value ([8]; JEKHT dose = table row) was 4.14 ± 1.07^a /mm^2, the “Submandibular lymph node total thickness” value ([8]; JEKHT dose = table row) was 487.38 ± 83.96^a μm/central regions and the “Blood IFN-γ content, change vs tumor-bearing control” value [8, 11] was −14.77%. For the same compound, the “Blood IL-6 content, change vs tumor-bearing control” value [8, 11] was 21.68%, the “Body weight gain, change vs tumor-bearing control” value [8, 11] was −11162.72% and the “Peritoneal NK cell activity, change vs tumor-bearing control” value [8, 11] was −26.39%. For the same compound, the “Splenic IL-1β content, change vs tumor-bearing control” value [8, 11] was −10.82%, the “Splenic IL-10 content, change vs tumor-bearing control” value [8, 11] was −33.33% and the “Splenic NK cell activity, change vs tumor-bearing control” value [8, 11] was −12.73%. For the same compound, the “Splenic TNF-α content, change vs tumor-bearing control” value [8, 11] was −23.94%, the “Tumor volume variation, change vs tumor-bearing control” value [8, 11] was −66.73% and the “Periovarian fat pad absolute weight” value [8, 12] was 0.009 ± 0.003 g. For the same compound, the Spleen absolute weight [8, 12] was 0.049 ± 0.009 g, the “Submandibular lymph node absolute weight” value [8, 12] was 0.002 ± 0.001 g and the “Tumor mass absolute weight” value [8, 12] was 0.047 ± 0.010 g. The “Tumor volume Changes [B − A]” value [8, 12] was 125.92 ± 40.49^a mm^3, the “Tumor volume, Sacrifice [B]” value [8, 12] was 184.85 ± 37.69^a mm^3 and the White adipocyte diameters ([8]; periovarian fat pad, JEKHT dose = table row) was 19.89 ± 5.09^a μm. The “Cortex lymphoid cell follicle numbers” value [8, 13] was 4.14 ± 1.68^gj /mm^2, the Cortex thickness [8, 13] was 255.43 ± 46.37^a μm/lymph node and the TNF-positive cells [8, 13] was 6.57 ± 2.51^gj cells/mm^2 of lymph node. It also gave an Apoptotic cell percentages [8, 14] of 27.50 ± 6.62%, a Tumor cell volume [8, 14] of 51.00 ± 10.37 %/mm^2 and a Cmax ([9]; 8th administration) of 770 ± 220 ng/mL. For the same compound, the Cmax ([9]; first tamoxifen administration) was 280 ± 160 ng/mL, the MRT inf ([9]; 8th administration) was 28.5 ± 8.53 h and the MRT inf ([9]; first tamoxifen administration) was 18.1 ± 5.71 h. The Tmax ([9]; 8th administration) was 3.4 ± 0.89 h, the Tmax ([9]; first tamoxifen administration) was 3.6 h and the half-life ([9]; 8th administration) was 19.6 ± 5.84 h. It also gave a half-life ([9]; first tamoxifen administration) of 13.1 ± 5.77 h, an AUC(0-inf) ([9]; 8th administration) of 21500 ± 3040 ng·h/mL and an AUC(0-inf) ([9]; first tamoxifen administration) of 4860 ± 2870 ng·h/mL. It also gave an AUC(0-t) ([9]; 8th administration) of 12400 ± 2660 ng·h/mL, an AUC(0-t) ([9]; first tamoxifen administration) of 3230 ± 1790 ng·h/mL and an AUC(0-inf) ([10]; oral) of 6860 ± 2920 ng·h/mL. It also gave an AUC(0-t) ([10]; oral) of 5270 ± 1790 ng·h/mL, a Cmax ([10]; oral) of 364 ± 122 ng/mL and an MRT inf ([10]; oral) of 14.9 ± 6.29 h. The Tmax ([10]; oral) was 5.6 ± 2.19 h and the half-life ([10]; po, 50 mg/kg) was 9.56 ± 4.16 h.

Reference: patent US11065294B2, “Composition including oriental medicine to treat neoplastic disease” (COMPREHENSIVE AND INTEGRATIVE MEDICINE INSTITUTE, priority 2013, dated 2021)
